Assay results from patent US8889731B2, “Compounds, compositions and methods for repelling blood-feeding arthropods and deterring their landing and feeding” (Contech Enterprises Inc., priority 2007, dated 2014).

What was measured:
Format in all cases: in vivo
[1] = test system: mosquitoes; experiment: General bioassay procedure with garlic oil, its components and fractions (mosquito species not given)
Description: (§1) Candidate repellents and deterrents were bioassayed according to a modified protocol from the World Health Organization (1996). At least 1 hour prior to each bioassay, 75 host-seeking non blood-fed, nulliparous, 5- to 8-day-old female Aedes aegypti, Anopheles gambiae or Culex quinquefasciatus were placed into a wood-framed cage (26.5 cm on each side and 42.5 cm high) with a wooden floor, screened mesh sides and top, and a clear acrylic front fitted with a cotton stockinette sleeve (10 cm diameter). The test subject's arm was covered with an elbow-length polyethylene glove with an excised patch (16.6 cm long, 6 cm wide) to expose the ventral forearm of the test subject. Candidate deterrents were formulated in mineral (paraffin) oil and applied to the exposed forearm 5 min prior to inserting the arm into the cage. The inserted arm remained in the cage for 3 min every 30 min. Prior to each 3-min bioassay period, the hand of the untreated arm was inserted into the cage to ascertain that it received 10 bites within 30 sec as an indication of “biting pressure”.
(§2) The bioassay was terminated when the treated arm received ≧2 bites in one 3-min bioassay period or one bite in each of two consecutive bioassay periods. The time elapsed from experiment initiation to first bite was recorded as deterrent failure or complete protection time.
(§3) N,N-diethyl-m-toluamide formulated in ethanol at a corresponding dose served as a positive control, and mineral oil by itself served as a negative control. On each day, only one candidate compound was tested, ensuring that any residual material in the chamber had disappeared before the next bioassay.
Garlic oil (Allium sativum—Mexico; Clearwater Soap Works, Box 1775 RR1, Clearwater, BC V0E 1N0, Canada) was formulated in mineral oil and tested using the general bioassay procedure described in EXAMPLE 2 at a dose of 0.1 mg per cm^2 of arm surface. It expressed repellence and deterrence for ˜30 min.
Some of the 10 components in FIG. 1 were bioassayed singly (see general bioassay procedure) and in various combinations, all of which were as deterrent to mosquitoes as garlic oil.
To determine the most deterrent component(s) in garlic oil, it was fractionated by HPLC into four fractions, each containing one or more of the EAD-active components (compounds 1-10 in FIG. 1 and 11-14 in TABLE 2). Each fraction was then bioassayed and shown to be similarly effective in repelling and deterring mosquitoes.
Components with high molecular weight (>250 daltons) are advantageous in that they: 1) dissipate slowly from treated surfaces; 2) provide long-lasting protection against mosquitoes and 3) convey little, if any, offensive smell. The relative abundance of such components was enhanced by treating garlic oil under vacuum, thus stripping away lower-boiling components. In GC-EAD analyses of the high-boiling residue, four components elicited responses from mosquito antennae.

[2] = test system: Culex quinquefasciatus; experiment: Arm-in-cage repellent/deterrent bioassay on exposed human forearm (modified WHO protocol), Culex quinquefasciatus
Description: as §1, §2, §3
To determine the repellence and deterrence of 8-allylsulfanyloctan-1-ol against Culex quinquefasciatus, a 2% and 5% or a 10% formulation of 8-allylsulfanyloctan-1-ol in mineral oil was applied in Experiments 9-11 at a dose of 1.5 mg per cm^2 to the skin of the test person, and was bioassayed according to the protocol described under EXAMPLE 2. In Experiment 12, mineral oil by itself served as a negative control and was tested at the same dose (1.5 mg per cm^2) as in Experiments […]. Each of Experiments 9-11 was replicated 4 times.
To compare the repellence and deterrence against Culex quinquefasciatus caused by 8-allylsulfanyloctan-1-ol as a single active ingredient and by 8-allylsulfanyloctan-1-ol in combination with vanillin as a second active ingredient, we tested a 6.7% emulsion of vanillin (Experiment 22), a 6.7% emulsion of 8-allylsulfanyloctan-1-ol (Experiment 23) and a 13.4% emulsion of 8-allylsulfanyloctan-1-ol plus vanillin (1:1 ratio) (Experiment 24). 8-Allylsulfanyloctan-1-ol and vanillin were formulated in Emulsion No. 1 (see EXAMPLE 9). In each of Experiments […], test stimuli were applied at a dose of 1.5 mg per cm^2 to the skin of the test person, and were bioassayed according to the protocol described under EXAMPLE 2. In Experiment 25, Emulsion No. 1 served as a positive control and was tested at the same dose (1.5 mg per cm^2) as in Experiments 22-24. Each of Experiments 22-25 was replicated three times.

[3] = test system: Anopheles gambiae; experiment: Arm-in-cage repellent/deterrent bioassay on exposed human forearm (modified WHO protocol), Anopheles gambiae
Description: as §1, §2, §3
To determine the repellence and deterrence of 8-allylsulfanyloctan-1-ol against Anopheles gambiae, a 2%, 5% or a 10% formulation of 8-allylsulfanyloctan-1-ol in mineral oil was applied in Experiments 5-7 at a dose of 1.5 mg per cm^2 to the skin of the test person, and was bioassayed according to the protocol described under EXAMPLE 2. In Experiment 8, mineral oil by itself served as a negative control and was tested at the same dose (1.5 mg per cm^2) as in Experiments 5-7. Each of Experiments 5-8 was replicated 4 times.
To be able to compare the repellence and deterrence caused N,N-diethyl-m-toluamide (DEET), and by 8-allylsulfanyloctan-1-ol, Experiment 13 tested a 2% formulation of N,N-diethyl-m-toluamide in ethanol (the best formulant for this compound) for protection from bites by Anopheles gambiae. A dose of 1.5 mg per cm^2 was applied to the skin of the test person and bioassayed according to the protocol described under EXAMPLE 2.
To compare the repellence and deterrence against Anopheles gambiae caused by 8-allyl-sulfanyloctan-1-ol as a single active ingredient and by 8-allylsulfanyloctan-1-ol in combination with vanillin as a second active ingredient, we tested a 6.7% emulsion of vanillin (Experiment 18), a 6.7-% emulsion of 8-allylsulfanyl-octan-1-ol (Experiment 19) and a 13.4% emulsion of 8-allylsulfanyloctan-1-ol plus vanillin (1:1 ratio) (Experiment 20). 8-Allylsulfanyloctan-1-ol and vanillin were formulated in Emulsion No. 1 (see EXAMPLE 9). In each of Experiments 18-20, test stimuli were applied at a dose of 1.5 mg per cm^2 to the skin of the test person, and were bioassayed according to the protocol described under EXAMPLE 2. In Experiment 21, Emulsion No. 1 served as a positive control and was tested at the same dose (1.5 mg per cm^2) as in experiments 18-20. Each of Experiments 18-21 was replicated three times.

C=CCSCCCCCCCCO [Compound 24, 8-allylsulfanyloctan-1-ol]
repellent and deterrent effect in bioassays (in words) [1]: very potent, even at a low dose
protection from bites, average duration ([2]; 2% formulation in mineral oil, 1.5 mg per cm^2, Experiment 9): 198 min
protection from bites, average duration ([2]; 5% formulation in mineral oil, 1.5 mg per cm^2, Experiment 10): 319 min
protection from bites, average duration ([2]; 6.7% single active in Emulsion No. 1 (FIG. 9 legend: 2.0%), 1.5 mg per cm^2, Experiments 22, 23): 242 min
protection from bites, average duration ([2]; 10% formulation in mineral oil, 1.5 mg per cm^2, Experiment 11): 495 min
protection status when experiment was terminated after eight hours ([2]; 10% formulation in mineral oil, Experiment 11, each of the three replicates): complete protection against bites
protection from bites, average duration ([3]; 2% formulation in mineral oil, 1.5 mg per cm^2, Experiment 5): 297 min
protection from bites, average duration ([3]; 5% formulation in mineral oil, 1.5 mg per cm^2, Experiment 6): 314 min
protection from bites, average duration ([3]; 6.7% single active in Emulsion No. 1 (FIG. 8 legend: 2.0%), 1.5 mg per cm^2, Experiments 18, 19): 369 min
protection from bites, average duration ([3]; 10% formulation in mineral oil, 1.5 mg per cm^2, Experiment 7): 487 min
